Results published in patent publication US20120178666A1 (SHIRE LLC, priority 2009, published 2012).

Experiments:
[1] = Prodrug stability in simulated gastric fluid (USP); conditions: 37° C.
Protocol: (§1) The remaining concentrations of the prodrugs were then assayed by HPLC.

[2] = Prodrug stability in simulated intestinal fluid (USP); conditions: 37° C.
Protocol: as §1

| Compound | % prodrug remaining following incubation for: 1 h in simulated gastric fluid pH 1.1 [1] [%] | % prodrug remaining following incubation for: 2 h in simulated intestinal fluid pH 6.8 [2] [%] |
| --- | --- | --- |
| O=C(O)CC1N=C(NC(=O)Cc2c(Cl)cccc2Cl)NC1=O (centres unmarked) [Compound 4, Guanfacine fumaryl Cyclic adduct] | 97 | 84 |
| N=C(NC(=O)Cc1c(Cl)cccc1Cl)NC(=O)NC(C(=O)O)c1ccccc1 (centres unmarked) [Compound 8, Guanfacine Phenylglycine Urea] | 96 | 100 |
| N=C(NC(=O)CCNC(=O)[C@@H]1CCC(=O)N1)NC(=O)Cc1c(Cl)cccc1Cl [Compound 10, Guanfacine B-Alanine-(S)-Pyroglutamic acid Amide] | 82 | – |
| CN1CC(=O)N=C1NC(=O)Cc1c(Cl)cccc1Cl [Compound 12, Cyclised Guanfacine Sarcosine Amide] | 48 | 87 |
| N=C(NC(=O)Cc1c(Cl)cccc1Cl)NC(=O)Oc1ccc(C[C@H](N)C(=O)O)cc1 [Compound 13, (S)-Tyrosine-(Guanfa ine) Carbamate] | 74 | 81 |
| N=C(NC(=O)Cc1c(Cl)cccc1Cl)NC(=O)O[C@@H]1CN[C@H](C(=O)O)C1 [Compound 14, (S)-4-Hydroxyproline-(Guanfacine) Carbamate] | 70 | – |
| N=C(NC(=O)Cc1c(Cl)cccc1Cl)NC(=O)OC[C@H](NC(=O)[C@@H]1CCC(=O)N1)C(=O)O [Compound 16, (S)-Pyroglutamic acid-(S)-Serine(Guanfacine) Carbamate] | 78 | 95 |
| C[C@@H](OC(=O)NC(=N)NC(=O)Cc1c(Cl)cccc1Cl)[C@H](NC(=O)[C@@H]1CCC(=O)N1)C(=O)O [Compound 19, (S)-Pyroglutamic acid-(S)-Threonine(Guanfacine) Carbamate] | 92 | – |
| CC(C)[C@H](N)C(=O)N[C@H](C(=O)O)[C@@H](C)OC(=O)NC(=N)NC(=O)Cc1c(Cl)cccc1Cl [Compound 20, (S)-Valine-(S)-Threonine(Guanfacine) Carbamate] | 79 | 100 |
| CC(C)[C@@H](N)C(=O)N[C@H](C(=O)O)[C@@H](C)OC(=O)NC(=N)NC(=O)Cc1c(Cl)cccc1Cl [Compound 21, (R)-Valine-(S)-Threonine(Guanfacine) Carbamate] | 83 | – |
| N=C(NC(=O)CCCNC(=O)[C@@H]1CCC(=O)N1)NC(=O)Cc1c(Cl)cccc1Cl [Compound 23, Guanfacine (GABA-(S)-Pyroglutamic acid) Amide] | 98 | 78 |
| CC(C)[C@H](N)C(=O)NCCOC(=O)NC(=N)NC(=O)Cc1c(Cl)cccc1Cl [Compound 26, Guanfacine ethanolamine-(S)-Valine Carbamate] | 97 | 91 |
| CC(C)[C@@H](N)C(=O)NCCOC(=O)NC(=N)NC(=O)Cc1c(Cl)cccc1Cl [Compound 27, Guanfacine (ethanolamine-(R)-Valine) Carbamate] | 78 | – |
| CC(C)[C@@H]1N=C(NC(=O)Cc2c(Cl)cccc2Cl)NC1=O [Compound 35, Guanfacine-(S)-Valine Cyclic adduct] | 83 | – |
| NCCCC[C@@H]1N=C(NC(=O)Cc2c(Cl)cccc2Cl)NC1=O [Compound 36, Guanfacine-(S)-Lysine Cyclic adduct] | 83 | – |
| C[C@@H]1N=C(NC(=O)Cc2c(Cl)cccc2Cl)NC1=O [Compound 39, Guanfacine-(S)-Alanine Cyclic adduct] | 89 | – |
| N=C(NC(=O)Cc1c(Cl)cccc1Cl)NC(=O)OCCNC(=O)CN [Compound 49, Guanfacine (ethanolamine Glycine) Carbamate] | 87 | – |
| C[C@H]1N=C(NC(=O)Cc2c(Cl)cccc2Cl)NC1=O [Compound 51, Guanfacine-(R)-Alanine Cyclic adduct] | 80 | – |
| N=C(NC(=O)Cc1c(Cl)cccc1Cl)NC(=O)Nc1ccc(C(=O)O)cc1 [Compound 53, Guanfacine PABA Urea] | – | 100 |

Next, values leading:

| % prodrug remaining following incubation for: 1 h in simulated gastric fluid pH 1.1 [1] [%] | % prodrug remaining following incubation for: 2 h in simulated intestinal fluid pH 6.8 [2] [%] | Compound |
| --- | --- | --- |
| 81 | 98 | N=C(NC(=O)CC[C@H](NC(=O)[C@@H]1CCC(=O)N1)C(=O)O)NC(=O)Cc1c(Cl)cccc1Cl [Compound 6, (S)-Pyroglutamic acid-(S)-γ-Glutamate (Guanfacine) Amide] |
| 79 | 66 | CNCC(=O)N[C@@H](CCC(=O)NC(=N)NC(=O)Cc1c(Cl)cccc1Cl)C(=O)O [Compound 7, Sarcosine-(S)-γ-Glutamate-Guanfacine Amide] |
| 83 | – | CC(=O)N[C@@H](COC(=O)NC(=N)NC(=O)Cc1c(Cl)cccc1Cl)C(=O)O [Compound 15, Acetyl-(S)-Serine (Guanfacine) Carbamate] |
| 74 | – | CC(C)[C@@H](N)C(=O)N[C@@H](COC(=O)NC(=N)NC(=O)Cc1c(Cl)cccc1Cl)C(=O)O [Compound 18, (R)-Valine-(S)-Serine(Guanfacine) Carbamate] |
| – | 85 | CC(C)[C@@H](N)C(=O)NCCCC(=O)NC(=N)NC(=O)Cc1c(Cl)cccc1Cl [Compound 22, (R)-Valine aminobutanoyl Guanfacine Amide] |
| 80 | 99 | CC(C)[C@H](NC(=O)COC(=O)NC(=N)NC(=O)Cc1c(Cl)cccc1Cl)C(=O)O [Compound 29, Guanfacine (glycolyl-(S)-Valine) Carbamate] |
| 77 | 160 | CC(C)[C@@H](NC(=O)COC(=O)NC(=N)NC(=O)Cc1c(Cl)cccc1Cl)C(=O)O [Compound 30, Guanfacine (glycolyl-(R)-Valine) Carbamate] |
| 70 | – | CC(C)[C@H](N)C(=O)NCCCC(=O)NC(=N)NC(=O)Cc1c(Cl)cccc1Cl [Compound 56, Guanfacine (GABA-(S)-Valine) Amide] |
| 81 | – | N=C(NC(=O)CCCNC(=O)CC[C@H](N)C(=O)O)NC(=O)Cc1c(Cl)cccc1Cl [Compound 57, Guanfacine (GABA-(S)-Glutamate) Amide] |
| 86 | – | CNCC(=O)N[C@@H](CCOC(=O)NC(=N)NC(=O)Cc1c(Cl)cccc1Cl)C(=O)O [Compound 66, Sarcosine-(S)-Homoserine (Guanfacine) Carbamate] |
